One assay relates to primary cilia. Nature of the assay: Ca2+ and NO imaging under fluid shear stress (Example 1). Type of assay: cell-based. Particulars: fluid shear 0.5 dyn/cm^2, vs corresponding controls. The protocol:
Ca^2+ and NO Imaging. For monolayer cell populations, intracellular measurements were obtained. […] After washed to remove excess Fura-2 AM, cytosolic Ca^2+ images were captured every second by recording Ca^2+-bound Fura-2 AM excitation fluorescence at 340/380 nm and emission at 510 nm. For intracellular nitric oxide (NO) measurements, the cells were incubated for 30 minutes at 37° C. with 20 μM DAF-FM (Cayman Chemicals). NO was then measured every second at the excitation and emission wavelengths of 495 and 515 nm, respectively. The cells were placed in PBS during the experiments and observed with a Nikon Eclipse Ti microscope. Fluid shear stress was then applied to cells through InsTech P720 peristaltic pumps with an inlet and outlet setup. The fluid was perfused through cell monolayers at a sub-minimal shear stress of 0.5 dyn/cm^2.
In single-cell studies, cells were grown on 2% Formvar® and transfected with the Ca^2+ fluorescence reporter 5HT6-mCherry-G-GECO1.0 (Addgene) using the JetPrime transfection reagent (Polyplus transfection). The shear stress ranged from 0.01-1.0 dyn/cm^2 and was accurately measured and controlled at all times. […] For these experiments, none of the CT-NPs contained AF594 dye to avoid interference with the mCherry signal. Confocal laser scanning microscopy in fast-scan mode was used to avoid potential excessive photo bleaching. […]

A further assay relates to LLC-PK1 cells. Nature of the assay: Intracellular and ciliary Ca2+ and NO imaging under flow or magnetic field (Example 2). Type of assay: cell-based, porcine. Conditions: 5HT6-mCherry-G-GECO1.0, single cell single cilium. The protocol:
Cells were grown as monolayer on glass-bottomed plates to enable live microscopy imaging. […] For intracellular NO measurements, cells were loaded with 20 μM DAF-FM (Cayman Chemical) for 30 minutes at 37° C. […] Fluid shear stress was then applied to cells through […] peristaltic pumps with an inlet and outlet setup. The fluid was perfused through cell monolayers at a sub-minimal shear stress of 0.5 dyn/cm^2. […] An alnico cylindrical magnet (VWR International, PA) was used to oscillate a primary cilium. This 100-gram AlNiCo magnet produced a permanent magnetic field of 1.35 T. Once a cilium was placed on the specimen holder and in the plane of view, the magnet was mounted on the top of an inverted Nikon Ti-E microscope. The magnet was then mechanically moved with an oscillation frequency of 1.6 Hz. The movement of cilia by the magnetic field was continuously recorded for the duration of the experiment. To examine how much force the magnetic field generated onto a cilium, we calculated the movement of cilia in response to the oscillating magnetic field (Supplement). […] The shear stress ranged from 0.01 to 1.0 dyn/cm^2 and was accurately measured and controlled at all times. […] Approximately 15-20 cilia were analysed for each treatment using different fluorescence filters. […] The GFP/mCherry ratios were also calculated using Nikon tracking software.

Another assay relates to p-ERK. The assay can be described thus: Immunoblotting of phosphorylated ERK. The class given is cell-based. Here is the method: Immunoblotting. […] Samples were kept on ice during sonication to prevent overheating. Samples were then centrifuged at 15,000 rpm for 20 min, and the supernatants were collected and subjected to protein quantification. The PAGE (polyacrylamide gel electrophoresis) on 6-10% SDS gels was performed followed by semi-dry transfer to PVDF membranes using a Bio-Rad Trans-Blot Turbo Transfer System and detection using antibodies against t-ERK (1:1,000), p-ERK (1:1,000), NOS (1:200), and GAPDH (1:2,000) (Cell Signaling Technology). Blots were scanned with both calorimetry to image molecular markers and chemiluminescence to capture the protein signal intensity using a Bio-Rad imager.
Background: In western blotting, separated proteins are transferred to a membrane and probed.

Results on one molecule are retold here after patent US20210259954A1, “CILIA-TARGETING NANOPARTICLES” (Chapman University, priority 2019, published 2021).

For the molecule `Oc1ccc(C2CNCCc3c2cc(O)c(O)c3Cl)cc1` (stereo not shown) [Fenoldopam, fenoldopam], in the assay on primary cilia, the NO biosynthesis result is “significantly increased” and the “cytosolic Ca^2+” value is “significantly increased cytosolic Ca^2+”. In addition, in the assay with LLC-PK1 cells, the “intraciliary and cytosolic Ca^2+ signalling” value is “induced less of an increase in the intraciliary Ca^2+ signalling”. Moreover, in the assay on p-ERK, the ERK phosphorylation result is recorded as “increased ERK phosphorylation”.
